The record followed here is ChEMBL document CHEMBL1147970, “Enzymatic synthesis of arbutin undecylenic acid ester and its inhibitory effect on melanin synthesis” (2007).

The source made the active and inactive calls. The rule behind the calls is not given here.

This assay deals with B16. Kind of assay: Antimelanogenic activity in mouse B16 cells at 0.1 mM after 6 days relative to control. It counts as functional.

The molecule `C=CCCCCCCCCC(=O)OC[C@H]1O[C@@H](Oc2ccc(O)cc2)[C@H](O)[C@@H](O)[C@@H]1O` had an Activity of 30%. For `OC[C@H]1O[C@@H](Oc2ccc(O)cc2)[C@H](O)[C@@H](O)[C@@H]1O` the value was “inactive”.
